Test results: patent US9771369B2, “Compounds and methods for kinase modulation, and indications therefor” (Plexxikon Inc., priority 2014, dated 2017)

What follows are compounds tested against c-Kit kinase (Homo sapiens (Human), UniProt P10721) (assay: c-Kit biochemical assay (AlphaScreen kinase activity)).
Chain of c-Kit kinase (P10721 26-976): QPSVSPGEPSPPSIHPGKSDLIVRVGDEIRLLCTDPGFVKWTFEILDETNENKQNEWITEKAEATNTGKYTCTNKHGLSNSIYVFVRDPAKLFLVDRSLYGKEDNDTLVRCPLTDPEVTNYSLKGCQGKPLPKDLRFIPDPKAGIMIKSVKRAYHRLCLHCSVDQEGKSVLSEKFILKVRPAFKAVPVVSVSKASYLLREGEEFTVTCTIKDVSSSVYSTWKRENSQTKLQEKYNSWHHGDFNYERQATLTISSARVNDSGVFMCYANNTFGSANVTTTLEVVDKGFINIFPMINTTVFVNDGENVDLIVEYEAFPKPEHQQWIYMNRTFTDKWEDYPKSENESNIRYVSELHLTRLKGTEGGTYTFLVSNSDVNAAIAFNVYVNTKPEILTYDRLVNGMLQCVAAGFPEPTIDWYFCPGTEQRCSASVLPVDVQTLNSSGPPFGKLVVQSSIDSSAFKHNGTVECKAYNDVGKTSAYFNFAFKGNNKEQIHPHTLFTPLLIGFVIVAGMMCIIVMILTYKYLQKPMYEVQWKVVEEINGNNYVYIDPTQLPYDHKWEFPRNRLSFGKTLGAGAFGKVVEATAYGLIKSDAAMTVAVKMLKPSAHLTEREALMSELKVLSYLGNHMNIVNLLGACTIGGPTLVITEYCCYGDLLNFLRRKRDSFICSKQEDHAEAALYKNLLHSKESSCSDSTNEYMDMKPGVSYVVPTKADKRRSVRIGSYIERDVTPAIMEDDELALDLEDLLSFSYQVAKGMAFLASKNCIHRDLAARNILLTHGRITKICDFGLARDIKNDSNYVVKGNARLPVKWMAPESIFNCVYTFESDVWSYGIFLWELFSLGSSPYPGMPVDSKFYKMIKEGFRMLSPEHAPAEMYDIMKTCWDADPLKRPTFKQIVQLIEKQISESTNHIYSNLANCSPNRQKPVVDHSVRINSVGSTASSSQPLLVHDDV
Method in brief: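 IC50 values come from 8-point, 1:3 compound titrations measuring inhibition of peptide phosphorylation by c-Kit (commercial or His-tagged E. coli-expressed) over 1 h at room temperature, read by AlphaScreen PY30/streptavidin beads. Low-ATP version: 10 μM ATP, 100 nM biotin-(E4Y)3; high-ATP version: 100 μM ATP, 30 nM biotin-(E4Y)10.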
For `COc1ccc(-c2[nH]c(C3CCN(c4ncnc5[nH]c(C)cc45)CC3)nc2C)cc1C` [P-3128, 4-[4-[5-(4-methoxy-3-methyl-phenyl)-4-methyl-1H-imidazol-2-yl]-1-piperidyl]-6-methyl-7H-pyrrolo[2,3-d]pyrimidine], the IC50 was 1 to 10 µM. Work on `COc1cc(-c2[nH]c(C3CCN(c4ncnc5[nH]c(C)cc45)CC3)nc2C)ccc1C` [P-3129, 4-[4-[5-(3-methoxy-4-methyl-phenyl)-4-methyl-1H-imidazol-2-yl]-1-piperidyl]-6-methyl-7H-pyrrolo[2,3-d]pyrimidine] yielded an IC50 of 1 to 10 µM. In the case of `COc1ccc(-c2[nH]c(C3CCN(c4ncnc5[nH]c(C)cc45)CC3)nc2C)cc1` [P-3130, 4-[4-[5-(4-methoxyphenyl)-4-methyl-1H-imidazol-2-yl]-1-piperidyl]-6-methyl-7H-pyrrolo[2,3-d]pyrimidine], the IC50 is reported as 1 to 10 µM. With `COc1cccc(-c2[nH]c(C3CCN(c4ncnc5[nH]c(C)cc45)CC3)nc2C)c1` [P-3131, 4-[4-[5-(3-methoxyphenyl)-4-methyl-1H-imidazol-2-yl]-1-piperidyl]-6-methyl-7H-pyrrolo[2,3-d]pyrimidine] the IC50 was 1 to 10 µM. `Cc1nc(C2CCN(c3ncnc4[nH]c(-c5ccc(C#N)cc5)cc34)CC2)[nH]c1-c1ccc2c(c1)OCCO2` [P-3132, 4-[4-[4-[5-(2,3-dihydro-1,4-benzodioxin-6-yl)-4-methyl-1H-imidazol-2-yl]-1-piperidyl]-7H-pyrrolo[2,3-d]pyrimidin-6-yl]benzonitrile] was tested, and the IC50 was 0.0001 to 1 µM. Compound `Cc1nc(C2CCN(c3ncnc4[nH]c(-c5cnn(C(F)F)c5)cc34)CC2)[nH]c1-c1ccc2c(c1)OCCO2` [P-3133, 6-[1-(difluoromethyl)pyrazol-4-yl]-4-[4-[5-(2,3-dihydro-1,4-benzodioxin-6-yl)-4-methyl-1H-imidazol-2-yl]-1-piperidyl]-7H-pyrrolo[2,3-d]pyrimidine] has an IC50 of 0.0001 to 1 µM. In the case of `COc1cc(-c2cc3c(N4CCC(c5nc(C(F)(F)F)c(-c6ccc(C)cc6)[nH]5)CC4)ncnc3[nH]2)ccn1` [P-3134, 6-(2-methoxy-4-pyridyl)-4-[4-[5-(p-tolyl)-4-(trifluoromethyl)-1H-imidazol-2-yl]-1-piperidyl]-7H-pyrrolo[2,3-d]pyrimidine], the IC50 is reported as 0.0001 to 1 µM. Compound `Cc1ccc(-c2[nH]c(C3CCN(c4ncnc5[nH]c(-c6ccc(F)cc6)cc45)CC3)nc2C(F)(F)F)cc1` [P-3135, 6-(4-fluorophenyl)-4-[4-[5-(p-tolyl)-4-(trifluoromethyl)-1H-imidazol-2-yl]-1-piperidyl]-7H-pyrrolo[2,3-d]pyrimidine] has an IC50 of 0.0001 to 1 µM. `Cc1nc(C2CCN(c3ncnc4[nH]c(-c5ccc(F)cc5)cc34)CC2)[nH]c1-c1ccc(C(F)(F)F)cc1` [P-3136, 6-(4-fluorophenyl)-4-[4-[4-methyl-5-[4-(trifluoromethyl)phenyl]-1H-imidazol-2-yl]-1-piperidyl]-7H-pyrrolo[2,3-d]pyrimidine] was tested, and the IC50 was 1 to 10 µM. Work on `Cc1nc(C2CCN(c3ncnc4[nH]c(-c5ccc(C#N)cc5)cc34)CC2)[nH]c1-c1ccc(C(F)(F)F)cc1` [P-3137, 4-[4-[4-[4-methyl-5-[4-(trifluoromethyl)phenyl]-1H-imidazol-2-yl]-1-piperidyl]-7H-pyrrolo[2,3-d]pyrimidin-6-yl]benzonitrile] yielded an IC50 of 1 to 10 µM. `Cc1nc(C2CCN(c3ncnc4[nH]c(-c5cnn(C(F)F)c5)cc34)CC2)[nH]c1-c1ccc2c(c1)OCO2` [P-3138, 4-[4-[5-(1,3-benzodioxol-5-yl)-4-methyl-1H-imidazol-2-yl]-1-piperidyl]-6-[1-(difluoromethyl)pyrazol-4-yl]-7H-pyrrolo[2,3-d]pyrimidine] gave an IC50 of 0.0001 to 1 µM. With `CCOc1ccc(-c2[nH]c(C3CCN(c4ncnc5[nH]c(-c6cnn(C(F)F)c6)cc45)CC3)nc2C)cc1C` [P-3139, 6-[1-(difluoromethyl)pyrazol-4-yl]-4-[4-[5-(4-ethoxy-3-methyl-phenyl)-4-methyl-1H-imidazol-2-yl]-1-piperidyl]-7H-pyrrolo[2,3-d]pyrimidine] the IC50 was 0.0001 to 1 µM. For `CCC1(c2nc(C)c(-c3ccc(OC)cc3)[nH]2)CCN(c2ncnc3[nH]c(C)cc23)CC1` [P-3140, 4-[4-ethyl-4-[5-(4-methoxyphenyl)-4-methyl-1H-imidazol-2-yl]-1-piperidyl]-6-methyl-7H-pyrrolo[2,3-d]pyrimidine], the IC50 was 1 to 10 µM. Compound `CCC1(c2nc(C)c(-c3ccc(OC)c(C)c3)[nH]2)CCN(c2ncnc3[nH]c(C)cc23)CC1` [P-3141, 4-[4-ethyl-4-[5-(4-methoxy-3-methyl-phenyl)-4-methyl-1H-imidazol-2-yl]-1-piperidyl]-6-methyl-7H-pyrrolo[2,3-d]pyrimidine] has an IC50 of 1 to 10 µM. `CCOc1ccc(-c2[nH]c(C3(CC)CCN(c4ncnc5[nH]c(C)cc45)CC3)nc2C)cc1C` [P-3142, 4-[4-[5-(4-ethoxy-3-methyl-phenyl)-4-methyl-1H-imidazol-2-yl]-4-ethyl-1-piperidyl]-6-methyl-7H-pyrrolo[2,3-d]pyrimidine] gave an IC50 of 1 to 10 µM. Compound `CCC1(c2nc(C)c(-c3ccc4c(c3)OCO4)[nH]2)CCN(c2ncnc3[nH]c(C)cc23)CC1` [P-3143, 4-[4-[5-(1,3-benzodioxol-5-yl)-4-methyl-1H-imidazol-2-yl]-4-ethyl-1-piperidyl]-6-methyl-7H-pyrrolo[2,3-d]pyrimidine] has an IC50 of 1 to 10 µM. In the case of `CCC1(c2nc(C)c(-c3ccc4c(c3)OCCO4)[nH]2)CCN(c2ncnc3[nH]c(C)cc23)CC1` [P-3144, 4-[4-[5-(2,3-dihydro-1,4-benzodioxin-6-yl)-4-methyl-1H-imidazol-2-yl]-4-ethyl-1-piperidyl]-6-methyl-7H-pyrrolo[2,3-d]pyrimidine], the IC50 is reported as 1 to 10 µM. Compound `CCOc1ccc(-c2[nH]c(C3(CC)CCN(c4ncnc5[nH]c(C)cc45)CC3)nc2C)cc1` [P-3145, 4-[4-[5-(4-ethoxyphenyl)-4-methyl-1H-imidazol-2-yl]-4-ethyl-1-piperidyl]-6-methyl-7H-pyrrolo[2,3-d]pyrimidine] has an IC50 of 1 to 10 µM. `COc1ccc(-c2[nH]c(C3CCN(c4ncnc5[nH]c(-c6ccnc(OC)c6)cc45)CC3)nc2C(F)(F)F)cc1` [P-3146, 4-[4-[5-(4-methoxyphenyl)-4-(trifluoromethyl)-1H-imidazol-2-yl]-1-piperidyl]-6-(2-methoxy-4-pyridyl)-7H-pyrrolo[2,3-d]pyrimidine] gave an IC50 of 0.0001 to 1 µM. `COc1ccc(-c2[nH]c(C3CCN(c4ncnc5[nH]c(-c6ccc(C#N)cc6)cc45)CC3)nc2C(F)(F)F)cc1` [P-3148, 4-[4-[4-[5-(4-methoxyphenyl)-4-(trifluoromethyl)-1H-imidazol-2-yl]-1-piperidyl]-7H-pyrrolo[2,3-d]pyrimidin-6-yl]benzonitrile] showed an IC50 of 0.0001 to 1 µM. Compound `COc1cc(-c2cc3c(N4CCC(c5nc(C)c(-c6ccc(C(F)(F)F)cc6)[nH]5)CC4)ncnc3[nH]2)ccn1` [P-3149, 6-(2-methoxy-4-pyridyl)-4-[4-[4-methyl-5-[4-(trifluoromethyl)phenyl]-1H-imidazol-2-yl]-1-piperidyl]-7H-pyrrolo[2,3-d]pyrimidine] has an IC50 of 1 to 10 µM. `Cc1cc2c(N3CCC(C)(c4nc(C)c(-c5ccc6c(c5)OCO6)[nH]4)CC3)ncnc2[nH]1` [P-3150, 4-[4-[5-(1,3-benzodioxol-5-yl)-4-methyl-1H-imidazol-2-yl]-4-methyl-1-piperidyl]-6-methyl-7H-pyrrolo[2,3-d]pyrimidine] gave an IC50 of 1 to 10 µM. With `Cc1cc2c(N3CCC(C)(c4nc(C)c(-c5ccc6c(c5)OCCO6)[nH]4)CC3)ncnc2[nH]1` [P-3151, 4-[4-[5-(2,3-dihydro-1,4-benzodioxin-6-yl)-4-methyl-1H-imidazol-2-yl]-4-methyl-1-piperidyl]-6-methyl-7H-pyrrolo[2,3-d]pyrimidine] the IC50 was 1 to 10 µM. With `Cc1cc2c(N3CCC(C)(c4nc(C)c(-c5ccc6c(c5)OC(F)(F)O6)[nH]4)CC3)ncnc2[nH]1` [P-3152, 4-[4-[5-(2,2-difluoro-1,3-benzodioxol-5-yl)-4-methyl-1H-imidazol-2-yl]-4-methyl-1-piperidyl]-6-methyl-7H-pyrrolo[2,3-d]pyrimidine] the IC50 was 1 to 10 µM. Work on `COc1ccc(-c2[nH]c(C3(C)CCN(c4ncnc5[nH]c(-c6cnn(C(F)F)c6)cc45)CC3)nc2C)cc1` [P-3153, 6-[1-(difluoromethyl)pyrazol-4-yl]-4-[4-[5-(4-methoxyphenyl)-4-methyl-1H-imidazol-2-yl]-4-methyl-1-piperidyl]-7H-pyrrolo[2,3-d]pyrimidine] yielded an IC50 of 0.0001 to 1 µM. `COc1ccc(-c2[nH]c(C3(C)CCN(c4ncnc5[nH]c(-c6cnn(C(F)F)c6)cc45)CC3)nc2C)cc1C` [P-3154, 6-[1-(difluoromethyl)pyrazol-4-yl]-4-[4-[5-(4-methoxy-3-methyl-phenyl)-4-methyl-1H-imidazol-2-yl]-4-methyl-1-piperidyl]-7H-pyrrolo[2,3-d]pyrimidine] showed an IC50 of 0.0001 to 1 µM. Compound `Cc1nc(C2(C)CCN(c3ncnc4[nH]c(-c5cnn(C(F)F)c5)cc34)CC2)[nH]c1-c1ccc2c(c1)OCO2` [P-3155, 4-[4-[5-(1,3-benzodioxol-5-yl)-4-methyl-1H-imidazol-2-yl]-4-methyl-1-piperidyl]-6-[1-(difluoromethyl)pyrazol-4-yl]-7H-pyrrolo[2,3-d]pyrimidine] has an IC50 of 0.0001 to 1 µM. Work on `COc1ccc(-c2[nH]c(C3(C)CCN(c4ncnc5[nH]c(-c6ccc(OC)nc6)cc45)CC3)nc2C)cc1` [P-3156, 4-[4-[5-(4-methoxyphenyl)-4-methyl-1H-imidazol-2-yl]-4-methyl-1-piperidyl]-6-(6-methoxy-3-pyridyl)-7H-pyrrolo[2,3-d]pyrimidine] yielded an IC50 of 0.0001 to 1 µM. Work on `COc1ccc(-c2cc3c(N4CCC(C)(c5nc(C)c(-c6ccc(OC)c(C)c6)[nH]5)CC4)ncnc3[nH]2)cn1` [P-3157, 4-[4-[5-(4-methoxy-3-methyl-phenyl)-4-methyl-1H-imidazol-2-yl]-4-methyl-1-piperidyl]-6-(6-methoxy-3-pyridyl)-7H-pyrrolo[2,3-d]pyrimidine] yielded an IC50 of 0.0001 to 1 µM. Compound `COc1ccc(-c2cc3c(N4CCC(C)(c5nc(C)c(-c6ccc7c(c6)OCO7)[nH]5)CC4)ncnc3[nH]2)cn1` [P-3158, 4-[4-[5-(1,3-benzodioxol-5-yl)-4-methyl-1H-imidazol-2-yl]-4-methyl-1-piperidyl]-6-(6-methoxy-3-pyridyl)-7H-pyrrolo[2,3-d]pyrimidine] has an IC50 of 0.0001 to 1 µM.
